One series has as its system HBV. The series is described as follows: in vitro validation of anti-HBV capacity (IC50). The settings on record: Hepatitis B virus, read-out: IC50, In Vitro Validation. It is filed as cell-based. The text has this: (§1) Chronic hepatitis B caused by hepatitis B virus (HBV) is a kind of serious disease. HBV inhibitory drugs are developed from a variety of compounds, and to further explore whether anti-HBV compounds are potentially promising for research, it is necessary to validate their anti-HBV capacity (IC50) and HepG2 hepatocytotoxicity (CC50). We used compounds screened with the fields of target name and target tissue from the CHEMBL database as training data and set the HBV (IC50) concentration and hepatotoxicity concentration (CC50) thresholds at 20 μM (the smaller the IC50 value; the more […]) and 100 μM (higher CC50 concentration indicates lower toxicity), respectively, to convert the compound activity data against the target into binary data for prediction. To validate the reliability of the SG-ATT model, we also used in vitro validation to test the model on IC50 and CC50 to predict the properties of the compounds. Throughout the in vitro validation, we tested the activity data of 100 compounds for IC50 and CC50.
(§2) We counted the model prediction results and listed the top 10 compounds ranked using μM prediction size. The first represents the largest μM, and the 10th represents the smallest μM.

Series [1] in a line: in vitro validation of HepG2 hepatocytotoxicity (CC50). It is filed as cell-based. The settings on record: human, top 10 compounds ranked by SG-ATT prediction, classification threshold 100 μM.
Source text: as §1, §2

Setting [2] is: anti-HBV capacity, top 10 compounds ranked by SG-ATT prediction, classification threshold 20 μM.

Like-named read-outs stand apart in the source and are kept apart here.

What is called IC50 is the point on the concentration scale where inhibition reaches its midpoint. With `O=C(N[C@@H](Cc1ccccc1)C(=O)N1CCCCC1)c1ccccc1` [O=C(N1CCCCC1)[C@@H](NC(C2=CC=CC=C2) =O)CC3=CC=CC=C3], the IC50 in the series with HBV (setting [2]) was more than 20 µM.

What is called CC50 is the concentration at which the toxic effect on the cells reaches its halfway point. Take `O=C(N[C@H](CO)Cc1ccccc1)/C(NC(=O)c1ccccc1)=C(/Br)c1ccccc1Br` [Br/C(C1=CC=CC=C1Br)=C(NC(C2=CC=CC=C2)=O)/ C(N[C@@H](CC3=CC=CC=C3)CO)=O]: in series [1], the CC50 is more than 100 µM.

In the case of `O=C(N[C@H](CO)Cc1ccccc1)/C(NC(=O)c1ccccc1)=C(/Br)c1ccccc1` [Br/C(C1=CC=CC=C1)=C(NC(C2=CC=CC=C2)=O)/ C(N[C@H](CO)CC3=CC=CC=C3)=O], the IC50 in the series with HBV worked out at 3.86 µM.

Turning to `Cc1cccc(/C=C(/NC(=O)c2ccccc2)C(=O)N[C@H](CO)Cc2ccccc2)c1` [O=C(N[C@H](CO)CC1=CC=CC=C1)/C(NC(C2=CC=CC=C2) =O)=C\C3=CC=CC(C)=C3], in the series on HBV, the IC50 is more than 20 µM. In series [1], the CC50 is more than 100 µM.

For the molecule `COc1ccccc1/C(Br)=C(/NC(=O)c1ccc([N+](=O)[O-])cc1)C(=O)N[C@@H](CO)CC(C)C` [O=C(N[C@H](CC(C)C)CO)/C(NC(C1=CC=C([N+]([O-])=O) C=C1)=O)=C(Br)\C2=CC=CC=C2OC], in series [1], the CC50 is 86.6 µM.

Turning to `O=C(N[C@H](CO)Cc1ccccc1)/C(NC(=O)c1ccccc1)=C(/Br)c1ccc(Br)cc1` [Br/C(C1=CC=C(Br)C=C1)=C(NC(C2=CC=CC=C2)=O)/ C(N[C@@H](CC3=CC=CC=C3)CO)=O], in the series on HBV, the IC50 amounted to 4.45 µM. Turning to `O=C(N[C@H](CO)Cc1ccccc1)/C(=C\c1ccccc1Cl)NC(=O)c1ccccc1` [O=C(N[C@H](CO)CC1=CC=CC=C1)/C(NC(C2=CC=CC=C2)=O) =C\C3=CC=CC=C3Cl], in the series with HBV, the half-maximal inhibitory concentration (IC50) is more than 20 µM. Besides, in series [1], the half-maximal cytotoxic concentration (CC50) is more than 100 µM. For the molecule `O=C(N[C@H](CO)Cc1ccccc1)/C(NC(=O)c1ccccc1)=C(/Br)c1ccccc1Cl` [Br/C(C1=CC=CC=C1Cl)=C(NC(C2=CC=CC=C2)=O)/ C(N[C@@H](CC3=CC=CC=C3)CO)=O], the IC50 in the series with HBV is 1.88 µM. Turning to `N#Cc1ccc(/C(Br)=C(/NC(=O)c2ccccc2)C(=O)N[C@H](CO)Cc2ccccc2)cc1` [Br/C(C1=CC=C(C#N)C=C1)=C(NC(C2=CC=CC=C2)=O)/ C(N[C@@H](CC3=CC=CC=C3)CO)=O], in series [1], the CC50 was more than 100 µM.

For the molecule `O=C(N[C@H](CO)Cc1ccccc1)/C(=C\c1ccccc1)NC(=O)c1ccccc1F` [O=C(N[C@H](CO)CC1=CC=CC=C1)/C(NC(C2=C(F) C=CC=C2)=O)=C\C3=CC=CC=C3], the IC50 in the series on HBV (setting [2]) was more than 20 µM. Also, the CC50 in series [1] is more than 100 µM.

Turning to `O=C(N/C(C(=O)N1CCCCC1)=C(\Br)c1nccs1)c1ccc(F)cc1` [O=C(N/C(C(N1CCCCC1)=O)=C(Br)/C2=NC=CS2) C(C=C3)=CC=C3F], the CC50 in series [1] (HepG2 cells) was more than 100 µM. In the case of `O=C(N[C@H](CO)Cc1ccccc1)/C(=C\c1ccc(Br)cc1)NC(=O)c1ccccc1` [O=C(N[C@H](CO)CC1=CC=CC=C1)/C (NC(C2=CC=CC=C2)=O)=C\C3=CC=C(Br)C=C3], in series [1], the CC50 is 72.7 µM.

For `O=C(N[C@H](CO)Cc1ccccc1)/C(NC(=O)c1ccccc1)=C(/Br)c1ccc(O)cc1` [Br/C(C1=CC=C(O)C=C1)=C(NC(C2=CC=CC=C2)=O)/ C(N[C@H](CO)CC3=CC=CC=C3)=O], in series [1], the CC50 was more than 100 µM. Regarding `CCN(CC)CCOc1ccc2nc(SCc3ccccc3OC)n(Cc3cccs3)c(=O)c2c1` [O=C1C2=CC(OCCN(CC)CC)=CC=C2N=C (SCC3=C(OC)C=CC=C3)N1CC4=CC=CS4], the IC50 in the series on HBV (setting [2]) was 1.93 µM. As to `COc1ccccc1/C(Br)=C(/NC(=O)c1ccc([N+](=O)[O-])cc1)C(=O)N[C@@H](CO)C(C)C` [Br/C(C1=CC=CC=C1OC)=C(NC(C2=CC=C([N+]([O-]) =O)C=C2)=O)/C(N[C@@H](CO)C(C)C)=O], the IC50 in the series with HBV (setting [2]) is 2.06 µM. Regarding `O=C(N[C@H](CO)Cc1ccccc1)/C(=C\c1ccccc1Br)NC(=O)c1ccccc1` [O=C(N[C@H](CO)CC1=CC=CC=C1)/C(NC(C2=CC=CC=C2)=O) =C\C3=CC=CC=C3Br], the IC50 in the series on HBV was more than 20 µM. For the molecule `CC(C)C(CO)NC(=O)[C@H](Cc1ccc(OCCN(C)C)cc1)NC(=O)c1ccccc1` (some centres unmarked) [O=C(NC(CO)C(C)C)[C@@H](NC(C1=CC=CC=C1)=O)CC2=CC=C(OCCN(C)C)C=C2], the CC50 in series [1] (HepG2 cells) was 89.1 µM.

The values are drawn from PMC10819071, “SG-ATT: A Sequence Graph Cross-Attention Representation Architecture for Molecular Property Prediction” (Molecules, 2024).
